IC50 and half-life data for two compounds are collected here from US20180125988A1, “TARGETED XTEN CONJUGATE COMPOSITIONS AND METHODS OF MAKING SAME” (AMUNIX OPERATING INC., priority 2014, published 2018).

Where a SMILES comes first, the peptide text is derived from it. [ ]: non-standard residue; d: D form. The star is where a group is joined. Dolaproine = CO[C@@H]([C@@H]1CCCN1)[C@@H](C)C(=O)O; Dil = CC[C@H](C)[C@H](NC)[C@@H](CC(=O)O)OC; X1 = C[C@@H](N*)[C@@H](O)c1ccccc1; NMeV = CN[C@H](C(=O)O)C(C)C

In data set [1] the test system is folate receptor-positive KB cell line. Description: CellTiter-Glo anti-proliferation assay, 3xFA(γ),3xMMAE-XTEN on KB cells with or without folic acid competitor. Type of data set: cell-based. The note with it: Homo sapiens, no folic acid competitor. As to the method:
The ability to selectively target and kill cells bearing folate receptors was evaluated. Test articles of free MMAE, a non-targeting 3xMMAE-XTEN conjugate (XTEN linked to toxin) and the folate receptor-targeted 3xFA(γ),3xMMAE-XTEN conjugate were evaluated in a CellTiter-Glo anti-proliferation assay using the folate receptor-positive KB cell line. As culture media contain high folic acid content, KB cells were grown in folic acid-free media containing 10% heat-inactivated fetal calf serum at 37° C., 5% CO2 for at least 7 days prior to the commencement of the cell viability experiment, This medium was also utilized for the execution of the experiment. In brief, KB cells were plated at 10,000 cells per well onto a 96-well microtiter assay plate. KB cells were allowed to adhere to the plate by an overnight incubation at 37° C., 5% CO2. The spent media was then removed and wells designated to contain folic acid competitor received assay medium containing folic acid, while wells not designated to have folic acid competitor received assay medium only. The plate was incubated for 30 min at 37° C., 5% CO2 before the assay media was aspirated and plate washed with assay media. […] After the appropriate incubation period, CellTiter-Glo reagent was added and the plate was read on a luminometer. The IC50 of each test article was determined using a 4 parameter logistic curve fit using GraphPad Prism.
Background: ATP-based viability assays read luminescence as a measure of living cells.

For data set [2] the following is noted: in Man; cited from earlier work.

As for `CC[C@H](C)[C@@H]([C@@H](CC(=O)N1CCC[C@H]1[C@H](OC)[C@@H](C)C(=O)N[C@H](C)[C@@H](O)c1ccccc1)OC)N(C)C(=O)[C@@H](NC(=O)[C@@H](NC)C(C)C)C(C)C` [MMAE, monomethyl auristatin E] (H-[NMeV]V[Dil][Dolaproine]-X1), in data set [1], the IC50 was determined as 0.8 nM. On to “pyroGlu-His-Trp-Ser-Tyr-Gly-Leu-Arg-Pro-Gly-NH2 [LHRH]”, for which, in data set [2], the half-life entry is listed as “less than 4 minutes”.

Usually IC50 stands for the concentration needed to halve the response being measured. Low values mean higher potency, high ones lower potency.
